Source: US6790838B2, “Combinations and methods for promoting in vivo liver cell proliferation and enhancing in vivo liver-directed gene transduction” (Amgen, Inc., priority 1999, dated 2004)

B1: KGF: full length recombinant keratinocyte growth factor polypeptide (AMGEN) (protein, UniProt P21781 1-194, looked up)
chain: MHKWILTWILPTLLYRSCFHIICLVGTISLACNDMTPEQMATNVNCSSPERHTRSYDYMEGGDIRVRRLFCRTQWYLRIDKRGKVKGTQEMKNNYNIMEIRTVAVGIVAIKGVESEFYLAMNKEGKLYAKKECNEDCNFKELILENHYNTYASAKWTHNGGEMFVALNQKGIPVRGKKTKKEQKTAHFLPMAIT
modifications: full-length

Tests used:
[1] = system: hepatocytes; format: in vivo, rat; conditions: for proportion of hepatocytes transfected/transduced (β-galactosidase): growth factor at hour 0, 1 ml retrovirus intraportally at 24 hours, killed 9 days after vector; for zones of the liver where transfected hepatocytes were found: intraportal vector at 24 hours, 9 days after vector
Protocol: Animals were anesthetized with isoflurane. A midline laparotomy was performed, the bowel was deflected to the left and wrapped in normal saline-soaked gauze. The portal vein and hepatic artery were clamped using micro-aneurysm clips, the portal vein was cannulated with a 26-gauge needle proximal to the clip and 1 ml of retroviral supernatant was injected over 5 minutes. Hemostasis was achieved by direct pressure to the portal vein and topical thrombin (Sigma) application. The clips were removed and the abdomen sutured, and the animals were allowed to recover in a warm, quite environment. […] For peripheral vein injection, 1 ml of the retrovirus/DOGS complex was injected via tail vein as a bolus.
Transduction of liver cells was measured by β-galactosidase activity. Animals were anesthetized and sacrificed by exsanguination. The liver was removed and frozen in liquid nitrogen. Ten-micron frozen sections were cut on to glass slides, fixed in a solution of 1.25% glutaraldehyde at 4° C., washed with phosphate buffered saline (PBS) then covered in X-gal (Gibco BRL, Grand Island, N.Y.) solution (1 mg/ml, pH 7.4) and incubated overnight at 37° C. Sections were then washed in PBS, counterstained lightly with eosin or carmalum stain, dehydrated and mounted in pertex (Cellpath, Hemel Hempstead, UK). The proportion of hepatocytes expressing nuclear β-galactosidase was calculated by counting 2000 hepatocytes per section from three separate areas.
At hour 0, several groups of four rats received an administration of either a single growth factor (either 4 mg/kg T3 or 1 mg/kg KGF) or the combination of 4 mg/kg T3/1 mg/kg KGF. A control group of three rats received injections of the growth factor diluents only. At 24 hours all rats were injected intraportally with 1 ml of retrovirus during temporary hepatic artery and portal vein occlusion. All rats were killed 9 days following vector administration.

[2] = system: hepatocytes; assay: Hepatocyte proliferation in vivo by BrdU labeling after growth factor injection; design: species or system rat; conditions: for zones of the liver showing cell proliferation / time after injection having maximum liver cell proliferation: KGF 1 mg/kg or T3 4 mg/kg s.c.; for proportion of hepatocytes proliferating (BrdU labelled, S-phase) at 24 hours: T3 4 mg/kg and/or KGF 1 mg/kg s.c. at 0 hours, BrdU 1 hour before sacrifice; for dose producing maximal hepatocyte proliferation at 24 hours: dose response curves, subcutaneous injection, single factor; for time after injection having maximum liver cell proliferation: time course 6-30 hours
Protocol: Male Wistar rats weighing 200-250 grams were used. They were housed in a temperature and light controlled room (12 hour light/dark cycle) and were allowed water and food ad libitum.
T3 (Sigma, St. Louis, Mo. USA), 4 mg per kilogram of body weight was dissolved in 100 μl of 0.01 M NaOH in […] NaCl and administered by subcutaneous injection in the flank region of the animal.
Lyophilized KGF (full lenght recombinant KGF, AMGEN, Thousand Oaks, Calif.) 1 mg per kilogram of body weight was dissolved in 100 μl of a suitable buffer (0.01% by weight polyoxyethylenesorbitan monolaurate (TWEEN 20, Sigma) solution) and administered by subcutaneous injection in the flank region of the animal.
Measurement of liver cell proliferation was performed by BrdU labeling. BrdU (Sigma) (50 mg/kg dissolved in 800 μl of 0.9% NaCl) was injected intraperitoneally 1 hour prior to sacrifice. Livers of the animals were removed and fixed in 60% methanol, 30% chloroform and 10% glacial acetic acid before routine histological processing and embedding in wax blocks. The incorporation of BrdU into hepatic nuclei was detected in 4 μm thick sections using a mouse monoclonal antibody (Dako, Glostrup, Denmark), followed by a biotinilated rabbit anti-mouse secondary antibody (Dako). Visualization was achieved by the indirect peroxidase technique using diaminobenzidine tetrahydrochloride dihydrate (Aldrich Chemical, Milwaukee, Wis. USA) as a substrate. The labeling index and percentage of hepatic mitoses was determined by counting 2000 hepatocytes per section from consecutive light microscopy fields. See Forbes, et al., Gene Therapy 5:552-555 at 553 (1998)(incorporated herein by reference in its entirety).
Dose response curves were initially performed to identify the dose at which KGF and T3 independently cause maximum hepatocyte proliferation at 24 hours.
The times after injection having maximum liver cell proliferation (as measured by DNA synthesis), were also independently established for each of the individual factors. An injection corresponding to the dose producing maximal cell proliferation, as established in Example 1, was independently administered to 2 groups of subjects, one group for each factor. Dividing cells were labelled by administering BrdU 1 hour prior to sacrifice. At 6, 9, 12, 15, 18, 24, and 30 hours after injection three animals of each group were sacrificed and labelled liver cells counted.
While searching for a manner of producing a clinically acceptable level of liver cell proliferation without a need for prior injury to the liver, a series of experiments were performed whereby a combination of factors was administered to subjects and liver cell proliferation measured 24 hours after administration. […] factor combinations were independently tested, each combination in a different group of animals. A first group received 4 mg/kg T3 at 0 hours. A second group received 1 mg/kg KGF at 0 hours. A third group received 1 mg/kg KGF and 4 mg/kg T3 at 0 hours. A fourth group served as control and received the vehicle or diluent only.

[3] = system: hepatocytes; conditions: retroviral vector given after growth factor administration; literature reports (Bosch 1996, Kosai 1998, Forbes 1998); cited from earlier work

Row | Molecule | proportion of hepatocytes transfected/transduced (β-galactosidase) [1] | zones of the liver where transfected hepatocytes were found [1] | zones of the liver showing cell proliferation [2] | proportion of hepatocytes proliferating (BrdU labelled, S-phase) at 24 hours [2] | dose producing maximal hepatocyte proliferation at 24 hours [2] | time after injection having maximum liver cell proliferation [2] | liver cells (hepatocytes) transduced in vivo [3]
1 | N[C@@H](Cc1cc(I)c(Oc2ccc(O)c(I)c2)c(I)c1)C(=O)O [T3, tri-iodothyronine, reference compound] | approximately 1.2% | mostly found in the mid-zonal region | predominantly in the mid-zonal region | approximately 10% | 4 mg/kg | 24 h | about 1.3%
2 | hepatocyte growth factor: hepatocyte growth factor, cited from Kosai et al. | – | – | – | – | – | – | 1.3%
3 | B1 | approximately 1% | found in all zones of the liver | all zones of the liver | approximately 9% | 1 mg/kg | 24 h | 2%
